Experiments:
NMDA receptor = conditions: cited from earlier work
[1] = system: voltage-sensitive calcium channel; conditions: cited from earlier work
In Vitro Cell Toxicity = conditions: rat, cerebellum cell culture
Procedure: The cerebellum was aseptically dissociated from 6 or 7-day old rat pups and placed in a 15 ml sterile plastic conical tube containing 3 ml of Dulbecco's modified Eagle's medium (DMEM) with a high glucose concentration ([…]) and 2 mM (v/v) L-glutamine and an antibiotic antimitotic mixture. The cerebella were then dissociated after 20-25 passages through a sterile 13 gauge, 10 cm long stainless steel needle attached to a 5 ml syringe with an inserted 45 micrometer pore nylon sieve. The dissociated cells were centrifuged at 200 g for 5 minutes. […] Cell viability was determined by the tryptan blue exclusion test.
Cells were plated at a density of 200/mm^2 on poly-L-lysine coated surfaces. Poly-L-lysine coated glass coverslips were prepared at least one hour in advance of plating by immersing sterile coverslips in sterile distilled water solution containing 15 microgram/ml poly-L-lysine, and washing in sterile water just prior. to use. […] After three days in culture, the media was replaced with media containing the desired test compound. Each test compound was tested in duplicate. Toxic-dose response was determined for each compound over a range from 0.005-1000 micromole. Four groups were run in each set of experiments;
Nerve cell survival was evaluated by phase contrast microscopy and tryptan blue staining after 24 hours.
Toxic dose-response curves were compiled using the protocol described above.

[2] = system: Cultures of Dissociated Neonatal Rat Cerebellum; assay: Reversal of NMDA Induced Cell Death in cultures of dissociated neonatal rat cerebellum; assay type: cell-based; conditions: positive control, 0.01 micromoles + NMDA; cell survival minus the NMDA effect (30%)
Procedure: The cerebellum was aseptically dissociated from 6 or 7-day old rat pups and placed in a 15 ml sterile plastic conical tube containing 3 ml of Dulbecco's modified Eagle's medium (DMEM) with a high glucose concentration ([…]) and 2 mM (v/v) L-glutamine and an antibiotic antimitotic mixture. The cerebella were then dissociated after 20-25 passages through a sterile 13 gauge, 10 cm long stainless steel needle attached to a 5 ml syringe with an inserted 45 micrometer pore nylon sieve. The dissociated cells were centrifuged at 200 g for 5 minutes.
Cells were plated at a density of 200/mm^2 on poly-L-lysine coated surfaces. […] The plated cells were covered with enriched medium and incubated at 37° C. in an atmosphere of 5% CO2 in air and 97% humidity. […] Each test compound was tested in duplicate. Toxic-dose response was determined for each compound over a range from 0.005-1000 micromole. Four groups were run in each set of experiments;
I. Control, consisting of enriched media alone,
II. N-methyl-D-aspartate (NMDA, 1 mM for 3 hours) as the cytotoxic challenge,
III. Test compound plus NMDA, and
IV. Positive control, spermine, spermidine or putrescine (0.01 micromoles) plus NMDA.
Surviving cells in Culture are measured relative to control (100%) as described above. Percent protection is the Cell Survival for the test compound minus the NMDA effect. […] The Effective Protection was calculated as the percent of the Percent Protection (X) divided by the maximal protection value (e.g. X×100/70).

[3] = system: pyramidal neurons throughout the CA1 layer of the anterior hippocampus; assay: Global Brain Ischemia In Gerbils; assay type: in vivo, mongolian gerbils; conditions: Meriones unguiculatus, Pyramidal neuron, ip, 336 h, read-out: PERCENT PROTECTION
Procedure: Male mongolian gerbils, aged 2.5-5 months, housed 4-8 in a cage, were supplied freely with food and water and maintained at 24° C. with a 12 hour day/night cycle.
For surgery the animals were anesthetized with halothane (1.5% in 100% O2) and the common carotid arteries exposed bilaterally through a midline ventral neck incision. Each artery was clamped for 5 minutes with aneurysm clips to produce global brain ischemia. The anesthesia was discontinued upon clamping. After 5 minutes the clamps were removed and the wound closed with skin clips.
For treatment, the test compound or vehicle was injected intra-peritoneally(ip) in a volume of 50 microlitres of solvent per 10 g body weight. The first injection was given two minutes after clamp removal, and thereafter daily for the next 2 post-operative days (total of 3 injections).
Seven groups each of 4-8 animals were compared:
I. Control; (sham- or unoperated and saline treated),
II. Vehicle treated, unoperated (when solvent is other than saline),
III. Ischemia--untreated or saline treated),
IV. Ischemia--vehicle treated (when solvent is other than saline),
V. Ischemia--Test compound treated, one sub-group per concentration tested,
VI. Ischemia and pentobarbital (40 mg/kg) as positive control).
Analysis of neuronal damage was performed 14 days post-ischemia by counting pyramidal neurons throughout the CA1 layer of the anterior hippocampus in […] thick (paraffin) coronal brain sections stained with hematoxylin and erosin.
Percent Protection values represent the fraction of hippocampi protected from ischemia in a group of animals treated with the stated dose of compound.

[4] = system: ischemia induced nerve cell death; conditions: gerbils; Gilad G et al.; cited from earlier work

## N=C(N)NCCCC(N)C(=O)NCCCNCCCN (stereo not drawn) [SFTX-33]
NMDA receptor
  EAA antagonism / PCP site of NMDA receptor: EAA antagonists capable of binding at the PCP site on the NMDA receptor
[1]
  voltage-sensitive calcium channel blocking: voltage-sensitive calcium channel blockers

## NCCCNCCCCNCCCN [Spermine, spermine, reference compound]
In Vitro Cell Toxicity
  CC50 at 24 h: 2 µM
[2]
  PERCENT PROTECTION: 38%
[3]
  responders at 10 mg/kg: 60%
[4]
  protecting against ischemia induced nerve cell death: activity
